Results as given in patent US8906925B2, “Pyrido[4,3-B]indoles containing rigid moieties” (Medivation Technologies, Inc., priority 2008, dated 2014).

Legend:
[1] = target: T1, human recombinant serotonin (5-Hydroxytryptamine) 5-HT2A receptor (Homo sapiens, UniProt P28223); assay: Serotonin 5-HT2A radioligand binding ([3H]Ketanserin); conditions: read-out: Inhibition of ligand binding, Serotonin 5-HT2A (percent inhibition of specific binding), compound at 1 μM
T1 construct: expressed in transfected cells; host or cells: Chinese hamster ovary (CHO-K1) cells
T1 sequence (P28223 whole entry): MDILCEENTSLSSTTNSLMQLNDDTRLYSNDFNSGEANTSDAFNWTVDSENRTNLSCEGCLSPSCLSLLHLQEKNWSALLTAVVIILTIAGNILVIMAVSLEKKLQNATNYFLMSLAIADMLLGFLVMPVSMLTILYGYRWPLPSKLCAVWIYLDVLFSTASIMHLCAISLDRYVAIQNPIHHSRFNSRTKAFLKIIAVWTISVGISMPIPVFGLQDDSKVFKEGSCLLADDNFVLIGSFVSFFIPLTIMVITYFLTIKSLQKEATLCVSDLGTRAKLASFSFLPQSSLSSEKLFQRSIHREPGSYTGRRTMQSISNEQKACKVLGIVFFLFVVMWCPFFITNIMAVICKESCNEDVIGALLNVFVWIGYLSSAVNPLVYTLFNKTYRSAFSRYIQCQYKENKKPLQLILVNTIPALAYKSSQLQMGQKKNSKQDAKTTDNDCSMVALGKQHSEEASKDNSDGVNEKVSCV
Protocol: Compounds of the invention were incubated with 0.5 nM [^3H]Ketanserin for 60 min. at 25° C. Non-specific binding was estimated in the presence of 1 μM Mianserin. Receptor proteins were filtered and washed, the filters were then counted to determine [^3H]Ketanserin specifically bound.

[2] = target: T2, human recombinant histamine H2 receptor (Homo sapiens, UniProt P25021); assay: Histamine H2 radioligand binding ([125I]Aminopotentidine); conditions: read-out: Histamine Binding (1 μM) H2, percent inhibition of specific binding, 1 μM
T2 construct: expressed in transfected cells; host or cells: Chinese hamster ovary (CHO) K1 cells
T2 sequence (P25021 whole entry): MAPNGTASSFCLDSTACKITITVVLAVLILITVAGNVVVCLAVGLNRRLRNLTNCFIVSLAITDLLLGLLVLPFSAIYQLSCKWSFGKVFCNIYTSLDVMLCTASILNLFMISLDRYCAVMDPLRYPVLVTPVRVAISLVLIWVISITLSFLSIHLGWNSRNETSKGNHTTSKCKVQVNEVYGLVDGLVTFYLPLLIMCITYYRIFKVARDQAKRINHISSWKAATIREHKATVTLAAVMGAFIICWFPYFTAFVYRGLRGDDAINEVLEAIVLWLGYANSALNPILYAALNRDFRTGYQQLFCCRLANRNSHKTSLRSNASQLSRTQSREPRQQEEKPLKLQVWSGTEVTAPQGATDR
Procedure, shortened: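 Receptor source: human recombinant H2 in CHO-K1 cells, assayed in 50 mM phosphate pH 7.4. Competition against 0.1 nM [125I]aminopotentidine, 120 min, 25 °C; 3 μM tiotidine sets nonspecific binding, filter-bound counts give specific binding.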

[3] = target: T3, human recombinant serotonin (5-Hydroxytryptamine) 5-HT6 receptor (Homo sapiens, UniProt P50406); assay: Serotonin 5-HT6 radioligand binding ([3H]LSD); conditions: compound at 1 μM; read-out: Inhibition of ligand binding, Serotonin 5-HT6 (percent inhibition of specific binding)
T3 construct: expressed in transfected cells; host or cells: human HeLa cells
T3 sequence (P50406 whole entry): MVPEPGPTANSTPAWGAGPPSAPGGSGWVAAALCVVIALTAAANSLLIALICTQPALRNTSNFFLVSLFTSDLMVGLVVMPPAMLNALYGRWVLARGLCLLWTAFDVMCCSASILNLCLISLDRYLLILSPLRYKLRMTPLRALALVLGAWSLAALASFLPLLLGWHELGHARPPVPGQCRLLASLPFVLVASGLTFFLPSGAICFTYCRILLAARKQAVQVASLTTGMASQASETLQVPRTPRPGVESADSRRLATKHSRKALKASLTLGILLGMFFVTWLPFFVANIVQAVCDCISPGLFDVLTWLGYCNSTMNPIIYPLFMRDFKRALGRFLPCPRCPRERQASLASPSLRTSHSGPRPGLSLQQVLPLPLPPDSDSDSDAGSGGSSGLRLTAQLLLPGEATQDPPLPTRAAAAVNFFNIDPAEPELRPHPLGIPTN
Protocol: Compounds of the invention were incubated with 1.5 nM [3H]Lysergic acid diethylamide (LSD) for 120 min. at 37° C. […] Receptor proteins were filtered and washed, the filters were then counted to determine [3H]LSD specifically bound. Compounds were screened at 1 μM or lower, using 1% DMSO as vehicle. Biochemical assay results are presented as the percent inhibition of specific binding in Table 10.

[4] = target: human recombinant serotonin (5-Hydroxytryptamine) 5-HT7 receptor (Homo sapiens, UniProt P34969); assay: Serotonin 5-HT7 radioligand binding ([3H]LSD); conditions: compound at 1 μM; read-out: Inhibition of ligand binding, Serotonin 5-HT7 (percent inhibition of specific binding)
Sequence of human recombinant serotonin (5-Hydroxytryptamine) 5-HT7 receptor (P34969 whole entry): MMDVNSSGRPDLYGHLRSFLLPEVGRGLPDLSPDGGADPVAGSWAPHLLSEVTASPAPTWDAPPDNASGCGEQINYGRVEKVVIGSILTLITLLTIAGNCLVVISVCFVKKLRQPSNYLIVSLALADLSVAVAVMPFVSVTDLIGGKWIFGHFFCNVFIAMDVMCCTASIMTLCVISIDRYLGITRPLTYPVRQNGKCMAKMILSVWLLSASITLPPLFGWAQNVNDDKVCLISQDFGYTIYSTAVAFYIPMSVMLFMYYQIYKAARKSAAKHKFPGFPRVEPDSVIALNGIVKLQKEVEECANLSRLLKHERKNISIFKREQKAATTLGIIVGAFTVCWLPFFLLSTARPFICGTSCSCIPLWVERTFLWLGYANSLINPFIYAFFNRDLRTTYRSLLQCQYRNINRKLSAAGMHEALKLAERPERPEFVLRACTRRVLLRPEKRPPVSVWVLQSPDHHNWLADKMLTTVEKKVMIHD
Text: Receptor proteins were filtered and washed, the filters were then counted to determine [^3H]LSD specifically bound.

histamine receptor H1 = histamine receptor H1 (Homo sapiens, UniProt P35367); assay: Histamine H1 radioligand binding ([3H]Pyrilamine); conditions: read-out: Histamine Binding (1 μM) H1, percent inhibition of specific binding, 1 μM
Sequence of histamine receptor H1 (P35367 whole entry): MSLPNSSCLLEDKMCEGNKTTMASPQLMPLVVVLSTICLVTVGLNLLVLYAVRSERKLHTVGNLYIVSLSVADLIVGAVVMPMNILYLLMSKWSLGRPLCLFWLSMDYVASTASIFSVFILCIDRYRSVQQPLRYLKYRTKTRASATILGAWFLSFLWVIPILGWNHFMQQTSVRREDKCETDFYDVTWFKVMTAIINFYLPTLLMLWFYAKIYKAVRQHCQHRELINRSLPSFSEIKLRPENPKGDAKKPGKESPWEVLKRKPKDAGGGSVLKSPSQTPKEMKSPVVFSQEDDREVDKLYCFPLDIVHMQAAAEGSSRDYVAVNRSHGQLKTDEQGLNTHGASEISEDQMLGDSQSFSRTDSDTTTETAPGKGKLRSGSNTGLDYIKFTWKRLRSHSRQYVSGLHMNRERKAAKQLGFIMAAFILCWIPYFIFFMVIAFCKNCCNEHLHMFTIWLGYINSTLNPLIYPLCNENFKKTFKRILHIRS
Procedure, shortened: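 Values are percent inhibition of specific [3H]pyrilamine (1.2 nM) binding with compounds at ≤1 μM (1% DMSO vehicle); 180 min incubation at 25 °C, pH 7.4 Tris buffer, on CHO-expressed human H1 receptor; 1 μM pyrilamine defined nonspecific binding, bound ligand counted after filtration.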

[5] = target: T4, human recombinant serotonin (5-Hydroxytryptamine) 5-HT2C receptor (Homo sapiens, UniProt P28335); assay: Serotonin 5-HT2C radioligand binding ([3H]Mesulergine); conditions: compound at 1 μM; read-out: Inhibition of ligand binding, Serotonin 5-HT2C (percent inhibition of specific binding)
T4 construct: expressed in transfected cells; host or cells: Chinese hamster ovary (CHO-K1) cells
T4 sequence (P28335 33-458): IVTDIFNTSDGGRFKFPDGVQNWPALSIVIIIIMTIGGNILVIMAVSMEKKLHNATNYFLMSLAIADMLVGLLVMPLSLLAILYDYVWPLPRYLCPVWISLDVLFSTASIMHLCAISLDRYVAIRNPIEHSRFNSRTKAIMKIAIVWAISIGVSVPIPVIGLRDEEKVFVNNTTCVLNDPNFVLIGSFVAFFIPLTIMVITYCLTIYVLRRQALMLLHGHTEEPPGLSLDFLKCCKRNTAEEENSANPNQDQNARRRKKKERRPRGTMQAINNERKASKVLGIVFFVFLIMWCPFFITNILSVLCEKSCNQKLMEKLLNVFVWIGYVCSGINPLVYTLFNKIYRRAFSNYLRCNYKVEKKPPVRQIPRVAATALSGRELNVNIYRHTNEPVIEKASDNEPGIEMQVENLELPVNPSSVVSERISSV
Procedure, shortened: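 Compounds tested at 1 μM or lower (1% DMSO vehicle) for displacement of 1 nM [3H]Mesulergine over 60 min at 25° C. Specific binding determined by filtration counting, with 1 μM Mianserin defining non-specific binding; values are percent inhibition.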

[6] = target: human dopamine D2L receptor (Homo sapiens, UniProt P14416); assay: Dopamine D2L radioligand binding ([3H]Spiperone); conditions: percent inhibition of specific binding; compound at 1 μM; read-out: Inhibition of ligand binding, Dopamine D2L
Sequence of human dopamine D2L receptor (P14416 whole entry): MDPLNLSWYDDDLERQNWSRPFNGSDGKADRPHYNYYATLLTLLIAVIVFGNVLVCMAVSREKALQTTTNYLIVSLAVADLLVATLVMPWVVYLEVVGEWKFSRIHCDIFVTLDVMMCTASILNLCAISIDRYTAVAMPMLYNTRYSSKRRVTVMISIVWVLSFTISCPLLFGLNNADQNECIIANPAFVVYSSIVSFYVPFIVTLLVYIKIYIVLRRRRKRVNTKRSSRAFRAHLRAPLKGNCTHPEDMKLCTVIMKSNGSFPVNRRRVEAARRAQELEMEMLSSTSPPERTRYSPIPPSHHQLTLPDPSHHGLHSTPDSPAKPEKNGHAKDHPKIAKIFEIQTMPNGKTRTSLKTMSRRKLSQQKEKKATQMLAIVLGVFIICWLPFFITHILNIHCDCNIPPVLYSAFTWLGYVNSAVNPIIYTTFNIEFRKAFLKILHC
Text: Non-specific binding was estimated in the presence of […] Haloperidol. Receptor proteins were filtered and washed, the filters were then counted to determine [^3H]Spiperone specifically bound. […] Biochemical assay results are presented as the percent inhibition of specific binding in Table 9.

SMILES	inhibition at 1 µM [1]	inhibition at 1 µM [2]	inhibition at 1 µM [3]	inhibition at 1 µM [4]	inhibition at 1 µM (histamine receptor H1)	inhibition at 1 µM [5]	inhibition at 1 µM [6]
C/C(=C/n1c2c(c3cc(Cl)ccc31)CN(C)CC2)c1cccc(F)c1 [Compound 233, (Z)-8-chloro-5-(2-(3-fluorophenyl)prop-1-enyl)-2-methyl-2,3,4,5-tetrahydro-1H-pyrido[4,3-b]indole]	97%	99%	102%	95%	85%	101%	48%
C/C(=C\n1c2c(c3cc(Cl)ccc31)CN(C)CC2)c1cccc(F)c1 [Compound 234, (E)-8-chloro-5-(2-(3-fluorophenyl)prop-1-enyl)-2-methyl-2,3,4,5-tetrahydro-1H-pyrido[4,3-b]indole]	100%	94%	101%	99%	69%	102%	73%
C/C(=C\n1c2c(c3cc(C)ccc31)CN(C)CC2)c1ccc(O)cc1 [Compound 235, (E)-4-(1-(2,8-dimethyl-3,4-dihydro-1H-pyrido[4,3-b]indol-5(2H)-yl)prop-1-en-2-yl)phenol]	98%	96%	99%	96%	73%	101%	80%
COc1ccc(/C(C)=C/n2c3c(c4cc(C)ccc42)CN(C)CC3)cc1 [Compound 236, (E)-5-(2-(4-methoxyphenyl)prop-1-enyl)-2,8-dimethyl-2,3,4,5-tetrahydro-1H-pyrido[4,3-b]indole]	99%	99%	98%	93%	20%	102%	76%
C/C(=C/n1c2c(c3cc(Cl)ccc31)CN(C)CC2)c1ccccc1Cl [Compound 237, (Z)-8-chloro-5-(2-(2-chlorophenyl)prop-1-enyl)-2-methyl-2,3,4,5-tetrahydro-1H-pyrido[4,3-b]indole]	101%	95%	101%	100%	88%	98%	45%
C/C(=C\n1c2c(c3cc(Cl)ccc31)CN(C)CC2)c1ccccc1Cl [Compound 238, (E)-8-chloro-5-(2-(2-chlorophenyl)prop-1-enyl)-2-methyl-2,3,4,5-tetrahydro-1H-pyrido[4,3-b]indole]	101%	93%	99%	98%	58%	99%	81%
COc1ccc2c(c1)c1c(n2/C=C(/C)c2ccncc2)CCN(C)C1 [Compound 239, (Z)-8-methoxy-2-methyl-5-(2-(pyridin-4-yl)prop-1-enyl)-2,3,4,5-tetrahydro-1H-pyrido[4,3-b]indole]	93%	28%	104%	98%	14%	93%	39%
C/C(=C/n1c2c(c3cc(Cl)ccc31)CN(C)CC2)c1cc(F)c(F)cc1Cl [Compound 240, (Z)-8-chloro-5-(2-(2-chloro-4,5-difluorophenyl)prop-1-enyl)-2-methyl-2,3,4,5-tetrahydro-1H-pyrido[4,3-b]indole]	99%	99%	104%	99%	95%	99%	34%
C/C(=C\n1c2c(c3cc(Cl)ccc31)CN(C)CC2)c1cc(F)c(F)cc1Cl [Compound 241, (E)-8-chloro-5-(2-(2-chloro-4,5-difluorophenyl)prop-1-enyl)-2-methyl-2,3,4,5-tetrahydro-1H-pyrido[4,3-b]indole]	93%	98%	101%	96%	89%	100%	47%
C/C(=C/n1c2c(c3cc(C)ccc31)CN(C)CC2)c1ccccc1Cl [Compound 242, (Z)-5-(2-(2-chlorophenyl)prop-1-enyl)-2,8-dimethyl-2,3,4,5-tetrahydro-1H-pyrido[4,3-b]indole]	98%	97%	107%	100%	88%	99%	55%
C/C(=C\n1c2c(c3cc(Cl)c(Cl)cc31)CN(C)CC2)c1ccncc1 [Compound 243, (E)-7,8-dichloro-2-methyl-5-(2-(pyridin-4-yl)prop-1-enyl)-2,3,4,5-tetrahydro-1H-pyrido[4,3-b]indole]	100%	90%	107%	97%	95%	99%	96%
C/C(=C/n1c2c(c3cc(Cl)c(Cl)cc31)CN(C)CC2)c1ccncc1 [Compound 244, (Z)-7,8-dichloro-2-methyl-5-(2-(pyridin-4-yl)prop-1-enyl)-2,3,4,5-tetrahydro-1H-pyrido[4,3-b]indole]	103%	88%	106%	99%	87%	99%	86%
C/C(=C\n1c2c(c3c(Cl)c(Cl)ccc31)CN(C)CC2)c1ccncc1 [Compound 245, (E)-8,9-dichloro-2-methyl-5-(2-(pyridin-4-yl)prop-1-enyl)-2,3,4,5-tetrahydro-1H-pyrido[4,3-b]indole]	102%	71%	103%	74%	60%	96%	92%
COc1ccc2c(c1)c1c(n2/C=C(\C)c2ccncc2)CCN(C)C1 [Compound 246, (E)-8-methoxy-2-methyl-5-(2-(pyridin-4-yl)prop-1-enyl)-2,3,4,5-tetrahydro-1H-pyrido[4,3-b]indole]	97%	29%	104%	88%	7%	94%	57%
C/C(=C/n1c2c(c3cc(C)ccc31)CN(C)CC2)c1ccc(Cl)c(Cl)c1 [Compound 247, (Z)-5-(2-(3,4-dichlorophenyl)prop-1-enyl)-2,8-dimethyl-2,3,4,5-tetrahydro-1H-pyrido[4,3-b]indole]	101%	99%	103%	101%	75%	100%	28%
